Assay results taken from patent US8785470B2, “Heterocyclic compounds and uses thereof” (Infinity Pharmaceuticals, Inc., priority 2011, dated 2014).
Like-named read-outs stand apart in the source and are kept apart here.

Legend:
[1] = test system: NZB/W model; settings: profilactic and therapeutic model; reductions in auto-antibody production, kidney damage, improvements in survival; cited from earlier work
[2] = target: T1, PI3Kα (Homo sapiens, UniProt P42336); experiment: PI3-Kinase HTRF assay, PI3Kα; type: biochemical; settings: bins Greater than 10 μM and Greater than 1 μM to 10 μM; 10 μM ATP, PIP2 at 10 μM; read-out: IC50 P13Kα
T1 construct: purchased Millipore Corporation 14-602-K
T1 sequence (P42336 whole entry): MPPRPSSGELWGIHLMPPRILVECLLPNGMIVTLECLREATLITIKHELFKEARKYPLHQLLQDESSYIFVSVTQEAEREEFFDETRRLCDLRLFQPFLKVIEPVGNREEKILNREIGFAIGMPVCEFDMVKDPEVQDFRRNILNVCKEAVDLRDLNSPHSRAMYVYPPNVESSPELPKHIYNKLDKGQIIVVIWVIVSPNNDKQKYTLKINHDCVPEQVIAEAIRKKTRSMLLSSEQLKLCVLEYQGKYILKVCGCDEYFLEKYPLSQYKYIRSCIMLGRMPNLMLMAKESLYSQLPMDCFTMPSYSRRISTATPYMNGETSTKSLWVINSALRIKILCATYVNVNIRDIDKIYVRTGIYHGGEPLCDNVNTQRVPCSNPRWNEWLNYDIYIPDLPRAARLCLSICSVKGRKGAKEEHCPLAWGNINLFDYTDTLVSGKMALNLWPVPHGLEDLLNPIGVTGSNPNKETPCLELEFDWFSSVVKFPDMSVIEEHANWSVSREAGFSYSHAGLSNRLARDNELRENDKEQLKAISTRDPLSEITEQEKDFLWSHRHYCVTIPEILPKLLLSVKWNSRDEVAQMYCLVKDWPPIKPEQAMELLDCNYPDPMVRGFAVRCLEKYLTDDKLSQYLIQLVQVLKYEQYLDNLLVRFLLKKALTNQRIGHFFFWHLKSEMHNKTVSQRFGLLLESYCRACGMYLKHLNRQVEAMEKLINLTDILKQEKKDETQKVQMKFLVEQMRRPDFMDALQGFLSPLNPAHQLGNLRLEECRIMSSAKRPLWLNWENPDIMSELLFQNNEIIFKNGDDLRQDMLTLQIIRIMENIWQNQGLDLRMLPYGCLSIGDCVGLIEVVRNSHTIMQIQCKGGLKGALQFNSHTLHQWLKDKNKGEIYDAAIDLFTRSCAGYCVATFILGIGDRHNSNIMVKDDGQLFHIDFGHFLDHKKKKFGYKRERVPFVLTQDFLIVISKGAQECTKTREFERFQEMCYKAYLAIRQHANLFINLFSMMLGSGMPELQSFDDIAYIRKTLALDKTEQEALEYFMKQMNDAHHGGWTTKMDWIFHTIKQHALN
T1 sequence (P27986 whole entry partner): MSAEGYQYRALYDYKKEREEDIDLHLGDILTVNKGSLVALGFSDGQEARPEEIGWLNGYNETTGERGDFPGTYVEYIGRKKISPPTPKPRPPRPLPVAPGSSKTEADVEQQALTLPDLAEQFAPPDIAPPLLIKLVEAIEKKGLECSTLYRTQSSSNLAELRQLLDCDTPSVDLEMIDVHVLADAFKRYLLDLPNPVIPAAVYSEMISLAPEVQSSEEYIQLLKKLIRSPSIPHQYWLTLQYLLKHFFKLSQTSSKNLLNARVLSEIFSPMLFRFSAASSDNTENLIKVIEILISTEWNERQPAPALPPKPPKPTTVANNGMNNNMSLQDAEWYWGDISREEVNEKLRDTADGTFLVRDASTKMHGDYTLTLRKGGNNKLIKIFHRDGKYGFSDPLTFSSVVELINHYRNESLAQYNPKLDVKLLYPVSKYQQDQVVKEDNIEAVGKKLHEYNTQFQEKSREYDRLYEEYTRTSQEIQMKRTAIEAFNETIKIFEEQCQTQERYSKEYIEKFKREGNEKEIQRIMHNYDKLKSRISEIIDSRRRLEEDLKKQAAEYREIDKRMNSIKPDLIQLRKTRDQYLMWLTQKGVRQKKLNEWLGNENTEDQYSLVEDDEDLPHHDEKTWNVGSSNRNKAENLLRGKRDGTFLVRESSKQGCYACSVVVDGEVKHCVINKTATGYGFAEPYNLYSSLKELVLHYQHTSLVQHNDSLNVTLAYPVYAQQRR
Outline: (§1)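 Purified recombinant human PI3Kα, β, γ or δ (0.25-0.3 μg/ml) preincubated 15 min at room temperature with compound (2% DMSO) and 10 μM PIP2, then reacted 1 h with 10 μM ATP. PIP3 product detected by competitive HTRF (GST-PH domain/biotin-PIP3); IC50 from 12-point curves, 20 μM to 0.1 nM, by nonlinear regression.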

[3] = test system: Balb/c splenic B cells; experiment: B cell activation and proliferation assay; type: cell-based; settings: Mus musculus, column bins 1 μM to 100 nM (given as 100-1000) and Less than 100 nM, read-out: B cell proliferation EC50
Outline: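 Balb/c splenic B cells were isolated by Ficoll gradient and magnetic separation, plated at 50.000 cells/well in RPMI/10% FBS, and pre-incubated with compound for 30 min at 37° C (0.2% DMSO). Cells were stimulated for 72 h with a cocktail of 10 μg/ml LPS or 5 μg/ml anti-mouse IgM F(ab′)2 plus 2 ng/ml IL4. Alamar Blue fluorescence (560Ex/590Em) after 5 h gave IC50 or EC50.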

[4] = test system: phospho-AKT in RAJI cells (PI3Kδ); experiment: PI3Kδ selective assay, phospho-AKT in RAJI cells; type: cell-based; settings: RAJI cells stimulated with anti-human IgM; read-out: IC50 for phospho-AKT, RAJI cell model
Outline: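 Serum-starved RAJI B-lymphoma cells stimulated with anti-human IgM to trigger B-cell receptor signaling; compound effect read as reduction of phospho-AKT, for example detected with phospho-AKT antibodies.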

[5] = test system: phospho-AKT in RAW 264.7 cells (PI3Kγ); experiment: PI3Kγ selective assay, phospho-AKT in RAW 264.7 cells; type: cell-based; settings: Mus musculus, RAW264.7, stimulated with C5a, read-out: IC50 for phospho-AKT, RAW 264.7 cell model
Outline: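 Serum-starved RAW 264.7 macrophages are stimulated with the GPCR agonist C5a and treated with compound before, with or after stimulation. Inhibition is read as reduced C5a-induced phospho-AKT, detected for example with phospho-AKT antibodies.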

[6] = test system: phospho-AKT in SKOV-3 cells (PI3Kα); experiment: PI3Kα selective assay, phospho-AKT in SKOV-3 cells; type: cell-based; settings: Homo sapiens, SK-OV-3, read-out: IC50 for phospho-AKT, SKOV-3 cell model
Source text: (§2) A compound's ability in selectively inhibiting PI3Kα can be assessed using SKOV-3 cells, i.e., human ovarian carcinoma cell line. Briefly, SKOV-3 cells, in which mutant PI3Kα is constitutively active, can be treated with test compounds. Test compounds' ability to inhibit AKT phosphorylation in SKOV-3 cells, therefore, is indicative of selective inhibition of PI3Kα. Thus, by monitoring the reduction of phospho-AKT in SKOV-3 cells (using for example, phospho-AKT antibodies), a compound's potential efficacy in selectively inhibiting PI3Kα can be assessed.
Certain compounds provided herein (e.g., Compounds 5, 49, 138, 326, 328, 354, 359, 389, and 391) were tested in SKOV-3 cell model using procedures as described above.

[7] = test system: phospho-AKT in 786-O cells (PI3Kβ); experiment: PI3Kβ selective assay, phospho-AKT in 786-O cells; type: cell-based; settings: Homo sapiens, 786-0, read-out: IC50 for phospho-AKT, 786-O cell model
Source text: as §2, with “PI3Kβ” for “PI3Kα”, “786-O” for “SKOV-3”, “kidney” for “ovarian”, “PI3Kβ” for “mutant PI3Kα”, “PI3β.” for “PI3Kα.”
Certain compounds provided herein (e.g., Compounds 5, 49, 138, 326, 328, 354, 359, 389, and 391) were tested in 786-O cell model using procedures as described above.

[8] = target: T2, PI3Kβ (Homo sapiens, UniProt P42338); experiment: PI3-Kinase HTRF assay, PI3Kβ; type: biochemical; settings: bins Greater than 10 μM and Greater than 1 μM to 10 μM; 10 μM ATP, PIP2 at 10 μM
T2 construct: purchased Millipore Corporation 14-603-K
T2 sequence (P42338 whole entry): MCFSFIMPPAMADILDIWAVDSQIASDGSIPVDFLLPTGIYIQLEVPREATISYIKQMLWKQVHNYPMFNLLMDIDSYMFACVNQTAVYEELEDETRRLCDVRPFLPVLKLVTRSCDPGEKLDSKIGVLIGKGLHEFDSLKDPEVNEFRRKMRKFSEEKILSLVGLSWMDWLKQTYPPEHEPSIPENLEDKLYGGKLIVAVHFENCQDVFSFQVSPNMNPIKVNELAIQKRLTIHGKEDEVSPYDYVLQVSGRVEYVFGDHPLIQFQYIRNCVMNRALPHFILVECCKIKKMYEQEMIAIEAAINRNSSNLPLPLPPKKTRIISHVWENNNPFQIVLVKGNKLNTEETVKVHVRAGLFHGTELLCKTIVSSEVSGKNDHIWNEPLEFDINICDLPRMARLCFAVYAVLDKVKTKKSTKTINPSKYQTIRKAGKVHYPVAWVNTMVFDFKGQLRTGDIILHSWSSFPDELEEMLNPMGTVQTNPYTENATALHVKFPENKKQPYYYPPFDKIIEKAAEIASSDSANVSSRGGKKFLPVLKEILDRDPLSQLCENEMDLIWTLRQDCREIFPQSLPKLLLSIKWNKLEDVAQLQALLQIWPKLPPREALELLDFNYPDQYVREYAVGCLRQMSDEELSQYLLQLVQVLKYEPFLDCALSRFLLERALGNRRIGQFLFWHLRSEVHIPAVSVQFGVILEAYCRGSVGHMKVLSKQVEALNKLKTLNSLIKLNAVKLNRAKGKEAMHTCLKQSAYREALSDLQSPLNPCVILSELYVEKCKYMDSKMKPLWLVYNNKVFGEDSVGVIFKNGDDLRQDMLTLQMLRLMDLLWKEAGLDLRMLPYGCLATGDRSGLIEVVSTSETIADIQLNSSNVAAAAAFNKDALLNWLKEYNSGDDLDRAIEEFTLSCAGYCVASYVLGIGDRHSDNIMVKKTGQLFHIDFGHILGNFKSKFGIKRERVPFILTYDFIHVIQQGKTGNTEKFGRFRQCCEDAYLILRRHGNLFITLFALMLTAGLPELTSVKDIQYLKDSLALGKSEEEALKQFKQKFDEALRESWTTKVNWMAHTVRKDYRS
T2 sequence (P27986 whole entry partner): as the sequence (P27986 whole entry partner) above
Outline: as §1

[9] = target: T3, PI3Kγ (Homo sapiens, UniProt P48736); experiment: PI3-Kinase HTRF assay, PI3Kγ; type: biochemical; settings: bins Greater than 10 μM and Greater than 1 μM to 10 μM; 10 μM ATP, PIP2 at 10 μM
T3 construct: purchased Millipore Corporation 14-558-K
T3 sequence (P48736 whole entry): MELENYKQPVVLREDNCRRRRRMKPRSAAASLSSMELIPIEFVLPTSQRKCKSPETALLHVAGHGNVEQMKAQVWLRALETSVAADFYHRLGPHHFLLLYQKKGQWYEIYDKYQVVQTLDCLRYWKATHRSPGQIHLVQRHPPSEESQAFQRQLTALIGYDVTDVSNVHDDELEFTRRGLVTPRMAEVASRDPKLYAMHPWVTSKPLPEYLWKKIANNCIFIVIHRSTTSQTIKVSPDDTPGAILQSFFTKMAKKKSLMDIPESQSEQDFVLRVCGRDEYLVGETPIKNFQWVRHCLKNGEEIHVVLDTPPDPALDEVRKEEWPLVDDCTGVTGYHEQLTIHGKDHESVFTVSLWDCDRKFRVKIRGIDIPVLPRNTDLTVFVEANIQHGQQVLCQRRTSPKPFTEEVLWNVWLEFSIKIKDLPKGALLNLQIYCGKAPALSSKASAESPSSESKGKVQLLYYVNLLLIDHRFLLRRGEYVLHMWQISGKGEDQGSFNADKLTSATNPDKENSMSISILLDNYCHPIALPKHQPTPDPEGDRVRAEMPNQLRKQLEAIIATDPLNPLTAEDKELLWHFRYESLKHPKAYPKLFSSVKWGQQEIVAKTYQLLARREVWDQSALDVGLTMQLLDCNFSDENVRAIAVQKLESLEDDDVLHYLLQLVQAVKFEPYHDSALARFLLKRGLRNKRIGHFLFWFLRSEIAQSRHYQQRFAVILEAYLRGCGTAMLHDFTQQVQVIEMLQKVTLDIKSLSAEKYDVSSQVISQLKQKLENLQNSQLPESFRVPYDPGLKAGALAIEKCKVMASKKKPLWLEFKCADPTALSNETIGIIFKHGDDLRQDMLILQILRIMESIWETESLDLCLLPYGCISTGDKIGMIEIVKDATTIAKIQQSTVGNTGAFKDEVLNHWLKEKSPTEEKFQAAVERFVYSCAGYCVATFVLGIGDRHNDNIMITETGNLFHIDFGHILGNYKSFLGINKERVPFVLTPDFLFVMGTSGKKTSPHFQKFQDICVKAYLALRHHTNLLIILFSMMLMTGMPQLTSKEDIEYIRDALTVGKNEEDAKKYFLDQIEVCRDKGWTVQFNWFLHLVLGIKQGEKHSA
Source text: (§3) A PI3-Kinase HTRF® assay kit (cat No. 33-016) purchased from Millipore Corporation was used to screen compounds provided herein. This assay used specific, high affinity binding of the GRPI pleckstrin homology (PH) domain to PIP3, the product of a Class 1A or 1B PI3 Kinase acting on its physiological substrate PIP2. During the detection phase of the assay, a complex was generated between the GST-tagged PH domain and biotinylated short chain PIP3. The biotinylated PIP3 and the GST-tagged PH domain recruited fluorophores (Streptavidin-Allophycocyanin and Europium-labeled anti-GST respectively) to form the fluorescence resonance energy transfer (FRET) architecture, generating a stable time-resolved FRET signal. The FRET complex was disrupted in a competitive manner by non-biotinylated PIP3, a product formed in the PI3 Kinase assay.
(§4) PI3 Kinase α, β, γ and δ activity was assayed using the PI3 Kinase HTRF® assay kit (catalogue No. 33-016) purchased from Millipore Corporation. Purified recombinant PI3Kα (catalogue No. 14-602-K), PI3Kβ (catalogue No. 14-603-K), PI3Kγ (catalogue No. 14-558-K) and PI3Kδ (catalogue No. 14-604-K) were obtained from Millipore Corporation. Purified recombinant PI3K enzyme was used to catalyze the phosphorylation of phosphatidylinositol 4,5-bisphosphate (PIP2 at 10 μM) to phosphatidylinositol 3,4,5-trisphosphate (PIP3) in the presence of 10 μM ATP. The assay was carried out in 384-well format and detected using a Perkin Elmer EnVision Xcite Multilabel Reader. Emission ratios were converted into percent inhibitions and imported into GraphPad Prism software. The concentration necessary to achieve inhibition of enzyme activity by 50% (IC50) was calculated using concentrations ranging from 20 μM to 0.1 nM (12-point curve). IC50 values were determined using a nonlinear regression model available in GraphPad Prism 5. […]

[10] = target: T4, PI3Kδ (Homo sapiens, UniProt O00329); experiment: PI3-Kinase HTRF assay, PI3Kδ; type: biochemical; settings: bins Greater than 10 μM and Greater than 1 μM to 10 μM; 10 μM ATP, PIP2 at 10 μM
T4 construct: purchased Millipore Corporation 14-604-K
T4 sequence (O00329 whole entry): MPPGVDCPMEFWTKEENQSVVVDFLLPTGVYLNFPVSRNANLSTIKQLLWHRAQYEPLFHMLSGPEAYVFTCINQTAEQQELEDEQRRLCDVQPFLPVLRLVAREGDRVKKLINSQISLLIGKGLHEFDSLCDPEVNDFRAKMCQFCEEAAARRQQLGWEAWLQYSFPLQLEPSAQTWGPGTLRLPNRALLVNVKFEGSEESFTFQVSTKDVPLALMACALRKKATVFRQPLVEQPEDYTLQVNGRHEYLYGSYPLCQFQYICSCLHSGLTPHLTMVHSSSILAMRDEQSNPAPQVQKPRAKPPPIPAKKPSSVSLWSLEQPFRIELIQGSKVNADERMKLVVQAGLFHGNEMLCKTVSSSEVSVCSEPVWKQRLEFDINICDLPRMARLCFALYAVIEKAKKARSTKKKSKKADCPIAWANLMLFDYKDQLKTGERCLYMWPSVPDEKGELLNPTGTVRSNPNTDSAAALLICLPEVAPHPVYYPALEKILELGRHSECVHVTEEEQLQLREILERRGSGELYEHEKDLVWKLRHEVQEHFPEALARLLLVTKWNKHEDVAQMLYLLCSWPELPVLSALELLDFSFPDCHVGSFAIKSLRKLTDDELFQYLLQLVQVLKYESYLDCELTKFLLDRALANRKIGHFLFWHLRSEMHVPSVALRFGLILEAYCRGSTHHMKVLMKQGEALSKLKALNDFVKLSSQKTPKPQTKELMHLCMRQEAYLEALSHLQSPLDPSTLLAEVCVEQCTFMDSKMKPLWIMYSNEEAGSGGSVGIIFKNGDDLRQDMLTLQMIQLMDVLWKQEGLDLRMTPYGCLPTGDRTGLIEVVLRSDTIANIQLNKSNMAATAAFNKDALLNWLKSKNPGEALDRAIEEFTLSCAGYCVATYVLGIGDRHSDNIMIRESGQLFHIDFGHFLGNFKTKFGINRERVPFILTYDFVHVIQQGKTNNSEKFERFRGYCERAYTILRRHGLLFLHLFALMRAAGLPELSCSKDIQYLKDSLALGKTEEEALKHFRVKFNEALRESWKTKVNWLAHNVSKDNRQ
T4 sequence (P27986 whole entry partner): as the sequence (P27986 whole entry partner) above
Source text: as §3, §4

[11] = test system: B6.Slez.Sle3z model; settings: cited from earlier work
[12] = PBS at pH 7.4, 37° C., 24 hours; cited from earlier work
[13] = test system: leukemic cells from p190 transduced cultures; settings: about 70 mg/kg twice daily; cited from earlier work
[14] = control or reference compounds, 5 μM; cited from earlier work
[15] = ranges less than 100 nM and between 100 nM and 1 μM (given as 100-1000)
[16] = ranges between 1 μM and 10 μM and greater than 10 μM
[17] = range between 100 nM and 1 μM (given as 100-1000)

| SMILES | IC50 [2] [µM] | IC50 [4] [µM] | IC50 [5, 15] [µM] | IC50 [6, 16] [µM] | IC50 [7, 16] [µM] | IC50 [8] [µM] | other results |
| --- | --- | --- | --- | --- | --- | --- | --- |
| CC(C)C[C@H](NC(=O)[C@H](Cc1ccccc1)NC(=O)c1cnccn1)B(O)O [Bortezimib, bortezomib] | – | – | – | – | – | – | blocking disease in the NZB/W model [1]: effective at blocking disease |
| COc1ncc(-c2cccc3cc([C@H](C)Nc4nc(N)ncc4C#N)n(-c4ccccc4)c(=O)c23)cn1 [Compound 5, (S)-2-amino-4-((1-(8-(2-methoxypyrimidin-5-yl)-1-oxo-2-phenyl-1,2-dihydroisoquinolin-3-yl)ethyl)amino)pyrimidine-5-carbonitrile] | 1 to 10 | < 0.1 | < 0.1 | 1 to 10 | > 10 | – | EC50 [3]: < 0.1 µM |
| COc1cc(-c2cccc3cc([C@H](C)Nc4nc(N)ncc4C#N)n(-c4ccccc4)c(=O)c23)ccn1 [Compound 49] | – | < 0.1 | < 0.1 | 1 to 10 | 1 to 10 | 1 to 10 | EC50 [3]: < 0.1 µM |
| CCOc1nc(-c2cnc(N)nc2N[C@@H](C)c2cc3cccc(-c4ccc(=O)n(C)c4)c3c(=O)n2-c2ccccc2)cs1 [Compound 138] | 1 to 10 | < 0.1 | < 0.1 | – | 1 to 10 | 1 to 10 | IC50 [6, 17]: 0.1 to 1 µM |
| CC(C)n1c([C@H](C)Nc2nc(N)ncc2C#N)cc2cccc(-c3ccc(=O)n(C)c3)c2c1=O [Compound 326] | 1 to 10 | < 0.1 | 0.1 to 1 | 1 to 10 | – | 1 to 10 | IC50 [7, 17]: 0.1 to 1 µM |
| Cc1ncc(-c2cccc3cc([C@H](C)Nc4nc(N)ncc4C#N)n(C(C)C)c(=O)c23)cn1 [Compound 328] | – | < 0.1 | 0.1 to 1 | – | 1 to 10 | – | IC50 [9]: 1 to 10 µM; IC50 [6, 17]: 0.1 to 1 µM |
| C[C@H](Nc1nc(N)ncc1C#N)c1cc2cccc(Cl)c2c(C(=O)NC2CCOCC2)n1 [Compound 354] | – | < 0.1 | – | > 10 | 1 to 10 | – | IC50 [10]: 1 to 10 µM; IC50 ([5]; range between 1 μM and 10 μM): 1 to 10 µM |
| CC(C)n1c([C@H](C)Nc2ncnc(N)c2C#N)cc2cccc(-c3ccc(=O)n(C)c3)c2c1=O [Compound 359] | 1 to 10 | < 0.1 | – | 1 to 10 | – | 1 to 10 | IC50 ([5]; range between 1 μM and 10 μM): 1 to 10 µM; IC50 [7, 17]: 0.1 to 1 µM |
| COc1ncc(-c2cccc3cc([C@H](C)Nc4nc(N)ncc4-c4cncs4)n(-c4ccccc4)c(=O)c23)cn1 [Compound 389] | 1 to 10 | < 0.1 | 0.1 to 1 | 1 to 10 | 1 to 10 | 1 to 10 | – |
| CO[C@H]1C[C@@H]2CC[C@@H](C)[C@@](O)(O2)C(=O)C(=O)N2CCCC[C@H]2C(=O)O[C@H]([C@H](C)C[C@@H]2CC[C@@H](OCCO)[C@H](OC)C2)CC(=O)[C@H](C)/C=C(\C)[C@@H](O)[C@@H](OC)C(=O)[C@H](C)C[C@H](C)/C=C/C=C/C=C/1C [RAD001, everolimus] | – | – | – | – | – | – | lupus symptoms [11]: ameliorate lupus symptoms |
| O=C(O)CCCc1ccc(N(CCCl)CCCl)cc1 [chlorambucil] | – | – | – | – | – | – | chemical stability [12]: largely hydrolyzed |
| Cc1ccc(NC(=O)c2ccc(CN3CCN(C)CC3)cc2)cc1Nc1nccc(-c2cccnc2)n1 [imatinib] | – | – | – | – | – | – | leukemogenesis [13]: delay but not cure leukemogenesis |
| CC(C)[N+](C)(CCOC(=O)C1c2ccccc2Oc2ccccc21)C(C)C [propantheline] | – | – | – | – | – | – | plasma stability [14]: intermediate plasma stability |
| CCCOc1cc(N)ccc1C(=O)OCCN(CC)CC [propoxycaine] | – | – | – | – | – | – | plasma stability [14]: low plasma stability |
